Data set [1] addresses T1, Ros1 (Homo sapiens, UniProt P08922).
T1 construct: purchased Reaction Biology Corp. (contract assay)
Nature of the data set: Kinase inhibitory activity (33P-ATP filter binding, Reaction Biology Corp.). The class given is biochemical. The following applies: read-out: The half maximal inhibitory concentration IC50 on the kinases, Ros1. As for the experimental part: (§1) The mixture was incubated at room temperature for 20 minutes. To the reaction mixture was added a certain concentration of ^33P-ATP to initiate the reaction, and then the mixture was incubated at room temperature for 120 minutes. The radioactivities of the reactants were determined by the method of filter binding. The final kinase activity was expressed as the ratio of the remaining kinase activity in the test sample to the kinase activity in the DMSO control group. The dose-effect curve was fitted by GraphPad software and the IC50 was calculated.

For data set [2], the target named is T2, TrkA (Homo sapiens, UniProt P04629).
T2 construct: purchased Reaction Biology Corp. (contract assay)
T2 sequence (P04629 33-796): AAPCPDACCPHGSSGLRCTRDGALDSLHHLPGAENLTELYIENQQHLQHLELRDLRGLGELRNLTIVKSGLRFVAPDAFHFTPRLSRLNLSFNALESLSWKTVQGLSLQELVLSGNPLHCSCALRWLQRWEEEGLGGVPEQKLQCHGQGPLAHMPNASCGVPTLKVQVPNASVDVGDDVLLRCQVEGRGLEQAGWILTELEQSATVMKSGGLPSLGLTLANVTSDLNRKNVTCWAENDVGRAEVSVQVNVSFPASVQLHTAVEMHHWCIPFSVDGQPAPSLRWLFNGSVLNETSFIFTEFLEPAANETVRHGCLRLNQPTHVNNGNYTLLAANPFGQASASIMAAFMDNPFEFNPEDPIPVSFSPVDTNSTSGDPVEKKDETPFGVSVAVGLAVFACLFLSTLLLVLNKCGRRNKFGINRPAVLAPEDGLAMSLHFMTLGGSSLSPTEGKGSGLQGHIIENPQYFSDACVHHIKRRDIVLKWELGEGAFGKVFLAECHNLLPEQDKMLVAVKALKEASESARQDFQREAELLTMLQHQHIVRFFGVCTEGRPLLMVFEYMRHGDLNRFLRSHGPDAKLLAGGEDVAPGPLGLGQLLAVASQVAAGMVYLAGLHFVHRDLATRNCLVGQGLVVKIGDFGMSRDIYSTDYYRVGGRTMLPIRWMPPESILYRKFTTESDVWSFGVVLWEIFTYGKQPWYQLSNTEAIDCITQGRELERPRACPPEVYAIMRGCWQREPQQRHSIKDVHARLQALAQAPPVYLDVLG
The data set is described as above. The class given is biochemical. The following applies: read-out: The half maximal inhibitory concentration IC50 on the kinases, TrkA. As for the experimental part:
as §1

Data set [3] addresses T3, TrkC (Homo sapiens, UniProt Q16288).
T3 construct: purchased Reaction Biology Corp. (contract assay)
Described as above. The class given is biochemical. The conditions noted are these: read-out: The half maximal inhibitory concentration IC50 on the kinases, TrkC. As for the experimental part:
as §1

Data set [4] deals with T4, ALK (Homo sapiens, UniProt Q9UM73).
T4 construct: purchased Reaction Biology Corp. (contract assay)
The description is as above. The following applies: read-out: The half maximal inhibitory concentration IC50 on the kinases, ALK. The class given is biochemical. As for the experimental part:
The inhibitory activities of the compounds on TrkA, TrkC, ALK, Ros1 and other kinases were determined by Reaction Biology Corp. To reaction buffer (20 mM Hepes (pH 7.5), 10 mM MgCl2, 1 mM EGTA, 0.02% Brij35, 0.02 mg/mL BSA, 0.1 mM Na3VO4, 2 mM DTT, 1% DMSO) were sequentially added a certain concentration of substrate, coenzyme factor, kinase and test compound (10 concentrations, 3-fold serial dilutions, DMSO at a final concentration of […]), and the mixture was mixed evenly. The mixture was incubated at room temperature for 20 minutes. To the reaction mixture was added a certain concentration of ^33P-ATP to initiate the reaction, and then the mixture was incubated at room temperature for 120 minutes. The radioactivities of the reactants were determined by the method of filter binding. The final kinase activity was expressed as the ratio of the remaining kinase activity in the test sample to the kinase activity in the DMSO control group. The dose-effect curve was fitted by GraphPad software and the IC50 was calculated.

In data set [5] the target is T5, Ba/F3 LMNA-NTRK1-WT stably transfected cell line (Homo sapiens, UniProt P04629).
T5 construct: fused on or other part: P02545 (Prelamin-A/C)
T5 sequence (P04629 whole entry, change not shown, the tested form may be a part): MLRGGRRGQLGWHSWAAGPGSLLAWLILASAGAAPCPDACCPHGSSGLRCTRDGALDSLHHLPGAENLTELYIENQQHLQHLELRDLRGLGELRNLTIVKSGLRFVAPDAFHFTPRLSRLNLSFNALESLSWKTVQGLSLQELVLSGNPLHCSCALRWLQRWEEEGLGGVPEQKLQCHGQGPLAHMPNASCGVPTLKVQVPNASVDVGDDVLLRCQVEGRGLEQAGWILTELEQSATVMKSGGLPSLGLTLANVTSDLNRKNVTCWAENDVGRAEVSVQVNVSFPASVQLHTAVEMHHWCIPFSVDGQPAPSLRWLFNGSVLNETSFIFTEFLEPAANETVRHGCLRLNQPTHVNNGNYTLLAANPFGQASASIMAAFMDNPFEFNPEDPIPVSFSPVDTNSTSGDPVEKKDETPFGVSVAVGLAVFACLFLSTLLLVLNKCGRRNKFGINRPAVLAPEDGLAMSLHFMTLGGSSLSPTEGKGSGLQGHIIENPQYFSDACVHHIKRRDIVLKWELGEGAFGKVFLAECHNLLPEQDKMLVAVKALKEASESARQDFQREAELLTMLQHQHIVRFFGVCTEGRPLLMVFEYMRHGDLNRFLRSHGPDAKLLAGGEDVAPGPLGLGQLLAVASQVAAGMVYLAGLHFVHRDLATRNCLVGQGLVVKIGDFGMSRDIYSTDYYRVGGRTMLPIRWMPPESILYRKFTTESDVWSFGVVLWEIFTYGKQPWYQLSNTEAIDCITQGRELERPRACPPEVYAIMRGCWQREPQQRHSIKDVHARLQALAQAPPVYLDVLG
In words: Cell proliferation inhibition (CellTiter-Glo). Format: cell-based. The conditions noted are these: 72 hours, read-out: The half maximal inhibitory concentration IC50 against cells, Ba/F3 LMNA-NTRK1-WT. The method, then:
Adenosine Tri-Phosphate (ATP) is an energy carrier shared by various life activities in nature, and is the smallest unit of energy storage and transfer. The CellTiter-Glo™ cell viability detection kit uses luciferase as the detection substance, and luciferase requires the participation of ATP during the process of luminescence. CellTiter-Glo™ reagent is added to cell culture medium, and the luminescent intensity is measured. The luminescent signal is directly proportional to the amount of ATP in the system, and ATP is positively related to the number of living cells. Therefore, by using the CellTiter-Glo kit to detect ATP content, cell proliferation can be detected. In this assay, the cell line is Ba/F3 LMNA-NTRK1-WT stably transfected cell line, with 5000 cells/well.
IC50 Determination Process:
1. Cell Culture and Inoculation
a) the cells in the logarithmic growth phase were harvested, and counted with a platelet counter. Trypan blue exclusion method was used to detect cell viability to ensure the cell viability was no less than 90%.
b) the cell concentration was adjusted; 90 μL of cell suspension was added respectively into a 96-well plate.
c) the cells in the 96-well plates was cultured under conditions of 37° C., 5% CO2 and 95% humidity overnight.
2. Drug Dilution and Administration
a) 10-fold drug solutions were prepared, the highest concentration was 10 μM, 9 concentrations, 3-fold diluted (refer to Appendix I). 10 μL of each drug solution was added to each well of the 96-well plate seeded with the cells in triplicate.
b) the cells in the 96-well plate added with the drug were cultured under conditions of 37° C., 5% CO2 and 95% humidity for 72 hours, and then CTG (cell proliferation) was performed.
a) CellTiter-Glo™ reagent was thawed, and the cell plate was equilibrated at room temperature for 30 minutes.
b) CellTiter-Glo™ reagent of a same volume was added to each well;
c) the cell plate was shaken on an orbital shaker for 5 minutes to lyse the cells.
d) the cell plate was placed at room temperature for 20 minutes to stabilize the luminescent signal.
e) the luminescent intensity was read.
GraphPad Prism 5.0 software was used to analyze the data, nonlinear S-curve regression was used to fit the data to obtain dose-effect curve, and IC50 value was calculated therefrom.

Data set [6] can be described thus: In vivo cassette pharmacokinetic test in mice. The arrangement: species or system male CD-1 mice. The conditions noted are these: male, CD-1, mouse, in vivo, po, 3 mg/kg, 2 h. As for the experimental part:
The dose of the compounds: […] PO dose of 3 mg/kg, and administration volume of 3 mL/kg.

For data set [7], the system named is human lung cancer LU-01-0414 subcutaneous xenograft tumor. Nature of the data set: In vivo efficacy, subcutaneous xenograft tumor of human lung cancer LU-01-0414. The following applies: LU-01-0414 xenograft, 14th day, PO. Details: species or system BALB/c mouse. The method, then: Experimental object: evaluation of the in vivo efficacy of test drugs such as WX002A on subcutaneous xenograft tumor of human lung cancer LU-01-0414 in BALB/c mouse model.
Drug preparation: The compounds were all prepared into clear solutions with 5% DMSO+10% solutol+85% water as solvent for administration in the PO (intragastric) group.
Tumor measurement: the tumor diameters were measured with a vernier caliper twice a week. The calculation formula of tumor volume is: V=0.5×a×b^2, wherein a and b represent the long diameter and short diameter of the tumor, respectively. The anti-tumor efficacy of the compounds was evaluated by TGI (%). TGI (%) reflects tumor growth inhibition rate.
Statistical analysis: the statistical analysis was based on the relative tumor volume and tumor weight at the end of the experiment using SPSS software. One-way ANOVA was used to analyze the comparison between multiple groups. […] P<0.05 was considered to indicate significant difference.

The target of data set [8] is T6, TrkA-G595R (Homo sapiens, UniProt P04629, G595R).
T6 construct: purchased Reaction Biology Corp. (contract assay)
T6 sequence (P04629 33-796 G595R): as the sequence (P04629 33-796) above, with G563R counted along it
In words: Kinase inhibitory activity (33P-ATP filter binding, Reaction Biology Corp.). Format: biochemical. The following applies: read-out: The half maximal inhibitory concentration IC50 on the kinases, TrkA-G595R. As for the experimental part:
as §1

A short description of data set [9]: In vivo pharmacokinetic test in mice. The arrangement: species or system male CD-1 mice. The conditions noted are these: PO dose of 10 mL/kg. As for the experimental part: Experimental object: male CD-1 mice aged 7-9 weeks were used as the experimental animals, the LC/MS/MS method was used to determine the drug concentrations in plasma at different time points after single intravenous (IV) and intragastric (PO) administration of the compounds, in vivo pharmacokinetic behaviors of the compounds of the present disclosure in mice were studied, and pharmacokinetic characteristics thereof were evaluated. Drug preparation: The compounds were prepared into clear solutions with 5% DMSO+10% solutol+85% water as solvent for administration in IV (intravenous) group and PO (intragastric). The dose of the compounds: IV dose of 3 mg/kg, and PO dose of […].

Structures are written as SMILES. Where a name gives a salt, the structure may show the parent alone. Where only a bound is given, the exact number is not on record here.

T3 sequence (Q16288 32-839): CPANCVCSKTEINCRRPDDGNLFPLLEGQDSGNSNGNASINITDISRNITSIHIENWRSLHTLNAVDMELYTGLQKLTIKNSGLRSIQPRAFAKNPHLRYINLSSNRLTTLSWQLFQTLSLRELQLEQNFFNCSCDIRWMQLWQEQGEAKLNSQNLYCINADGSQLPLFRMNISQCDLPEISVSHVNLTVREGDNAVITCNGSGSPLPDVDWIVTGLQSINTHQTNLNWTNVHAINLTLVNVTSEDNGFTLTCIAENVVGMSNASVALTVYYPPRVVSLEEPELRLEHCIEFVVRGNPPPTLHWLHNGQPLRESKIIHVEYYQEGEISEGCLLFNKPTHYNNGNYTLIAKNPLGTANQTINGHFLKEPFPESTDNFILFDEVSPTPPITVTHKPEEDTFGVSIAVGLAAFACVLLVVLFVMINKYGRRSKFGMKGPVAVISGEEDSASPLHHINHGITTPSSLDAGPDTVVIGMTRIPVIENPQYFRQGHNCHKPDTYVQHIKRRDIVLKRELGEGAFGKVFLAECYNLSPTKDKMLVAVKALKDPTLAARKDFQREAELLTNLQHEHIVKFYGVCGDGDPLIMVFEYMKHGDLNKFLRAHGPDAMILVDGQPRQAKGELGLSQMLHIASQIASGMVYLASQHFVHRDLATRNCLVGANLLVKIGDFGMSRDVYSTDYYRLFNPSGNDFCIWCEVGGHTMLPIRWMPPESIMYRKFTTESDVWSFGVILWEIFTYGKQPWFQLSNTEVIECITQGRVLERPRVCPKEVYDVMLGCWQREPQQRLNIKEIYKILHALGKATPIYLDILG
T1 sequence (P08922 28-2347): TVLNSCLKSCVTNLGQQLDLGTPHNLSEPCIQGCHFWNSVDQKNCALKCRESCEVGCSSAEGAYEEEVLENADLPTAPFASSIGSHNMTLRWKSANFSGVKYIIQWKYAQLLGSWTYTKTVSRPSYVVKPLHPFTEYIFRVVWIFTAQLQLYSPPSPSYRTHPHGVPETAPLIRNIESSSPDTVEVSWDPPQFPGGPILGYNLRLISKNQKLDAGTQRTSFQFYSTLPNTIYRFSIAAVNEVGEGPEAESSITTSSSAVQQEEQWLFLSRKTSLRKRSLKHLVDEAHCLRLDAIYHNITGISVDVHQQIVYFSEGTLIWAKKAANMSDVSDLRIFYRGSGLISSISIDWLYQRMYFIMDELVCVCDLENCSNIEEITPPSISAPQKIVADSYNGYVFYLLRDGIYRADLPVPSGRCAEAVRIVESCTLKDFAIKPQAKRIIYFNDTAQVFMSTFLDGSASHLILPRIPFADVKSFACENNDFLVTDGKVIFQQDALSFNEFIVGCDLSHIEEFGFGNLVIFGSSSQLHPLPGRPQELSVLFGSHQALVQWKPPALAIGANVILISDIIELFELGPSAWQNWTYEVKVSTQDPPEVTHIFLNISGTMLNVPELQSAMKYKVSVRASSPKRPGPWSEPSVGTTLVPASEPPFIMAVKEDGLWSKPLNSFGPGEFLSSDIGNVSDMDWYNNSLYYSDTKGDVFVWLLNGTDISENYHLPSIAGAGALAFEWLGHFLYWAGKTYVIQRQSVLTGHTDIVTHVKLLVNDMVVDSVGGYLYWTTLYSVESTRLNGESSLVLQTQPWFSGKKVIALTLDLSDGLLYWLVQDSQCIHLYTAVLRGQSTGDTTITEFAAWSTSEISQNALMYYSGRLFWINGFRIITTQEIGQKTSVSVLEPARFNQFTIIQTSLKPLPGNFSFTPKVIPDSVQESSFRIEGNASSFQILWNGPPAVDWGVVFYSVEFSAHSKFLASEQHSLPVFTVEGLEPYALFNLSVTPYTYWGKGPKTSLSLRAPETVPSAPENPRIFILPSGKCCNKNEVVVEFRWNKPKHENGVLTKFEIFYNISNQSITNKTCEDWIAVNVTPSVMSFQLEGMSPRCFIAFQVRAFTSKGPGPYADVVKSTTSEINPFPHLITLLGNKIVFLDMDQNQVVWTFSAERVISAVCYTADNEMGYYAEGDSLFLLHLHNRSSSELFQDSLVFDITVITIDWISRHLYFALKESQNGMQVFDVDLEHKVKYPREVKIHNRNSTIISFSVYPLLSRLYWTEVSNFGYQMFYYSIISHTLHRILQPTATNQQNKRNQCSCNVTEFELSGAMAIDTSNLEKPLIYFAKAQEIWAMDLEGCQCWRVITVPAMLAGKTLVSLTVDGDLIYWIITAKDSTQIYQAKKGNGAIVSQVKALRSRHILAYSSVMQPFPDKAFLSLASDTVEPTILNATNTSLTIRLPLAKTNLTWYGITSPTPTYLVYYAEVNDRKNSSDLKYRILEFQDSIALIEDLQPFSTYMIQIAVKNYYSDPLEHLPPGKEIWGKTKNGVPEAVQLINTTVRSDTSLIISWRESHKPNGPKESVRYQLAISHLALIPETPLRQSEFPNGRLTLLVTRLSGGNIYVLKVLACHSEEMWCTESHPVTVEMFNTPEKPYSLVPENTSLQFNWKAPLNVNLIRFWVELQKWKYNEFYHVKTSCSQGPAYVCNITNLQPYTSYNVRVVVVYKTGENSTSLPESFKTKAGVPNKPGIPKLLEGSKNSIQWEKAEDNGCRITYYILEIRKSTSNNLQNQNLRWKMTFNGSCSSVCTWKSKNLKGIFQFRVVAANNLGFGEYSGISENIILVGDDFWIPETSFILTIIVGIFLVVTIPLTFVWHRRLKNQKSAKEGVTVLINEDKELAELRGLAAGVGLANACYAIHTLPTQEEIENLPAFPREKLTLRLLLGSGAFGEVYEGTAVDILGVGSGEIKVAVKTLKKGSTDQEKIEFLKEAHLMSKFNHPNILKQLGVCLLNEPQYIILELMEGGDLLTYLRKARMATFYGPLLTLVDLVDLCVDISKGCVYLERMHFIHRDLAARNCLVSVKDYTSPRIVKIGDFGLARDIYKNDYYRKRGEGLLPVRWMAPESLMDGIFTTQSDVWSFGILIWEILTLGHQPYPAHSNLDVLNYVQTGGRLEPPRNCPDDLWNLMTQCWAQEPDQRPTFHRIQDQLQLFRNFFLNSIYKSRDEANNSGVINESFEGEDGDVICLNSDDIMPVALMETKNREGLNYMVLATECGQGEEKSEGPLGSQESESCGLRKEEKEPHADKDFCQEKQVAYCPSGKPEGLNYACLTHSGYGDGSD

Consider `C[C@H]1CNC(=O)c2cnn3ccc(nc23)N2OCC[C@H]2c2cc(F)cnc2O1` [WX005A], for which the IC50 was 0.531 µM in [1], > 1 µM in data set [2], 0.189 µM in [3] and > 1 µM in data set [4]. On to `O=C1NC2(CC2)COc2ncc(F)cc2[C@@H]2CCON2c2ccn3ncc1c3n2` [WX002B], for which, in [2], the IC50 was > 1 µM. Take `O=C1N[C@@H]2CNC[C@@H]2Oc2ncc(F)cc2[C@H]2CCON2c2ccn3ncc1c3n2` [WX012B]: the IC50 in [2] was 0.143 µM. For the same molecule, the GI50 in data set [5] was found to be 0.259 µM.

Turning to `C[C@@H]1COc2ncc(F)cc2[C@@H]2CCON2c2ccn3ncc(c3n2)C(=O)N1` [WX004B], the IC50 was > 1 µM in [2] and 0.105 µM in data set [3]. In the case of `CN1C[C@@H]2Oc3ncc(F)cc3[C@H]3CCON3c3ccn4ncc(c4n3)C(=O)N[C@@H]2C1` [WX009A], the IC50 in [2] was 0.0851 µM. Also, in [5], the GI50 worked out at 0.0768 µM. Regarding `CC1(C)COc2ncc(F)cc2[C@H]2CCON2c2ccn3ncc(c3n2)C(=O)N1` [WX018], the IC50 in data set [2] is > 1 µM. As for `O=C1N[C@@H]2CCNC[C@@H]2Oc2ncc(F)cc2[C@H]2CCON2c2ccn3ncc1c3n2` [WX013B], the IC50 in data set [2] was 0.0572 µM. Moreover, the GI50 in data set [5] worked out at 0.216 µM. As for `O=C1N[C@@H]2COCC[C@@H]2Oc2ncc(F)cc2[C@@H]2CCON2c2ccn3ncc1c3n2` [WX010A], in [2], the IC50 was > 1 µM.

For `CN1C[C@@H]2Oc3ncc(F)cc3[C@@H]3CCON3c3ccn4ncc(c4n3)C(=O)N[C@@H]2C1` [WX009B], the IC50 in data set [2] is > 1 µM. Same read-out and setting: to `CCN1C[C@@H]2Oc3ncc(F)cc3[C@@H]3CCON3c3ccn4ncc(c4n3)C(=O)N[C@@H]2C1` [WX015B] belongs > 1 µM; to `CN1CC[C@H]2NC(=O)c3cnn4ccc(nc34)N3OCC[C@H]3c3cc(F)cnc3O[C@H]2C1` [WX011B], 0.27 µM.

As to `CN1CCN(c2ccc(C(=O)Nc3n[nH]c4ccc(Cc5cc(F)cc(F)c5)cc34)c(NC3CCOCC3)c2)CC1` [RXDX-101, Entrectinib, reference compound], in data set [6], the “drug concentration in brain at 2 h Brain@2 h” value worked out at 30 nmol/kg. Take `O=C1NC2(CC2)COc2ccc(F)cc2[C@@H]2CCON2c2ccn3ncc1c3n2` [WX003B]: the IC50 in data set [2] was > 1 µM. Still for that read-out and setting: to `CC1CCc2ncc(F)cc2C2CCON2c2ccn3ncc(c3n2)C(=O)N1` (stereo not drawn) [WX001 hydrochloride] belongs 0.177 µM; to `O=C1N[C@@H]2CCNC[C@@H]2Oc2ncc(F)cc2[C@@H]2CCON2c2ccn3ncc1c3n2` [WX013A], > 1 µM.

For the molecule `CN1CC[C@H]2NC(=O)c3cnn4ccc(nc34)N3OCC[C@@H]3c3cc(F)cnc3O[C@H]2C1` [WX011A], the IC50 in data set [2] worked out at 0.0336 µM. Moreover, the GI50 in data set [5] turned out to be 0.0397 µM. Consider `C[C@@H](Oc1cc(-c2cnn(C3CCNCC3)c2)cnc1N)c1c(Cl)ccc(F)c1Cl` [Crizotinib, crizotinib, reference compound], for which, in data set [7] (30 mg/kg QD), the T/C was found to be 10.32% and the TGI was 117.67%. In addition, in data set [7] (50 mg/kg QD), the T/C is recorded as 4.89% and the TGI came to 124.09%. Consider `O=C1N[C@@H]2CCC[C@@H]2Oc2ncc(F)cc2[C@@H]2CCON2c2ccn3ncc1c3n2` [WX007B], for which the IC50 in data set [2] is 0.585 µM; in [8] it was > 1 µM. On to `C[C@@H]1CCc2ncc(F)cc2[C@H]2CCCN2c2ccn3ncc(c3n2)C(=O)N1` [LOXO-195, reference compound], for which, in data set [9], the “Area under the curve AUC0-last” value was 27.344 µM·h and the “Time of peak concentration Tmax” value came to 22.8 min. Also, in [9] (read-out: Peak concentration Cmax), the Cmax came to 12.7 µM.

For `CC(=O)N1CC[C@H]2NC(=O)c3cnn4ccc(nc34)N3OCC[C@H]3c3cc(F)cnc3O[C@H]2C1` [WX014A], the IC50 in [2] was determined as 1.23 µM.

Turning to `C[C@@H]1COc2ccc(F)cc2[C@@H]2CCON2c2ccn3ncc(c3n2)C(=O)N1` [WX017B], in data set [2], the IC50 is > 1 µM. Same read-out and setting: to `O=C1N[C@@H]2CNC[C@@H]2Oc2ncc(F)cc2[C@@H]2CCON2c2ccn3ncc1c3n2` [WX012A] belongs > 1 µM. For `CC(=O)N1CC[C@H]2NC(=O)c3cnn4ccc(nc34)N3OCC[C@@H]3c3cc(F)cnc3O[C@H]2C1` [WX014B], in data set [2], the IC50 stood at 0.0128 µM. Moreover, the GI50 in [5] stood at 0.0804 µM. Consider `O=C1NC2(COC2)COc2ncc(F)cc2[C@@H]2CCON2c2ccn3ncc1c3n2` [WX006B], for which the IC50 in data set [2] and in data set [8] was > 1 µM each time. On to `O=C1NC2(CC2)COc2ncc(F)cc2C2CCON2c2ccn3ncc1c3n2` (stereo not drawn) [WX002], for which the IC50 in data set [2] came to 0.00437 µM. Still for that read-out and setting: to `CCN1CC[C@H]2NC(=O)c3cnn4ccc(nc34)N3OCC[C@H]3c3cc(F)cnc3O[C@H]2C1` [WX016B] belongs 0.22 µM. As for `O=C1N[C@@H]2COC[C@@H]2Oc2ncc(F)cc2[C@@H]2CCON2c2ccn3ncc1c3n2` [WX008B], the IC50 in [2] and in [8] was > 1 µM each time. With `CCN1CC[C@H]2NC(=O)c3cnn4ccc(nc34)N3OCC[C@@H]3c3cc(F)cnc3O[C@H]2C1` [WX016A], the IC50 in [2] worked out at 0.033 µM. In addition, the GI50 in [5] is 0.0658 µM.

For `CCN1C[C@@H]2Oc3ncc(F)cc3[C@H]3CCON3c3ccn4ncc(c4n3)C(=O)N[C@@H]2C1` [WX015A], the IC50 in data set [2] was 0.182 µM. Besides, the GI50 in [5] worked out at 0.0651 µM.

The values are drawn from patent US11464780B2, “Pyrazolopyrimidine derivative and use thereof” (Simcere Pharmaceutical Co. Ltd., priority 2018, dated 2022).
